Laboratory results published in US4745124A, “Orally effective anti-hypertensive agents” (priority 1983, dated 1988).

Experiments:
[1] = oral; most patients; cited from earlier work
[2] = stability of aqueous solution of SQ 14225 on standing; assay type: physicochemical; conditions: 1 mg per ml, pH about 8, as little as 30 minutes
[3] = test system: ACE from guinea pig or human urine; experiment: inhibition of ACE prepared from guinea pig or human urine, [3H]-HipGlyGly substrate; assay type: biochemical; conditions: SQ 14,225 at 0.1 μM
Method: B. In certain experiments, as identified, an alternative assay system was employed using [^3 H]-HipGlyGly as substrate as described by Ryan, J. W., et al., Biochem. J. 167 501 (1977).
Fresh urine was ultrafiltered using a membrane (PTGC 142 05, Millipore Corp., Bedford, MA, U.S.A.) with a 10,000 MW retention limit. Typically, 500 ml of urine was ultrafiltered to approx. 15 ml and then the concentrated proteins were washed with water and then applied to a column (2.5×110 cm) of Sephacryl S-200, Trademark, Pharmacia Chemical Co., Uppsala, Sweden, previously equilibrated with 0.05M TrisHCl buffer, pH 8.0, with 0.5M NaCl. Under these conditions, ACE was eluted in two peaks; one, the major peak, was eluted just after the void volume (Ve /Vo =1.21) and the second (up to 20% of the total activity) at Ve /Vo =1.41. Enzyme activity was measured using [^3 H]-HipGlyGly as described in Example 1B. […] The activities were inhibited to a maximum of 84% by antibody to guinea pig lung ACE. The enzyme used herein was that of the first peak to emerge from the Sepacryl column. The enzyme preparation was concentrated about 10-fold by ultrafiltration. In one such experiment, the concentrated urinary protein solution obtained by ultrafiltration contained 2,400 m units of enzyme at 8.0 m units/mg of protein, and peak 1 from the Sephacryl column contained 1,100 m units at 814 m units/mg of protein. […]

## C[C@H](CS)C(=O)N1CCCC1C(=O)O (stereo in doubt) [SQ 14225, D-3-mercapto-2-methylpropanoyl-L-proline]
[1]
  stability in normal gastric and intestinal environments: sufficiently stable
[2]
  activity of aqueous solution on standing: substantially less active
[3]
  inhibition of activities of both ACE peaks: inhibited completely
